The structures appear in SMILES notation.

Common to all, as to type: binding
Assay [1] addresses T1, N-terminal CRD of hGalectin-4 (Gal-4N) (Homo sapiens, UniProt P56470).
T1 construct: N-terminal CRD of hGalectin-4 (amino acids 1–150, including an additional C-terminus His-Tag); His-Tag (C, cleaved yes); made in house; host or cells: E. coli BL21 (pET29b)
T1 sequence (P56470 1-150): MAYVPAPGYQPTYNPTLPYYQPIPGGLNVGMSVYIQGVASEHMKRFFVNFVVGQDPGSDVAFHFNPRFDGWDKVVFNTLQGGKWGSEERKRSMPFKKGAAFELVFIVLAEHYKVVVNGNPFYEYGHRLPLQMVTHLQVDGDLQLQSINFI
Kind of assay: 1H Saturation Transfer Difference (STD) NMR epitope mapping. The protocol:
^1H-saturation transfer difference NMR spectra were acquired for mixtures of Gal-4N (50 μM) with a 50-fold excess of ligand. Protein aromatic irradiation afforded the best STD intensities and thus these are discussed henceforth. The STD NMR spectra were very similar among the different ligands with respect to both the observed glycan protons and their intensities. […] Severe proton overlapping precluded a full comparison among ligands, but key isolated ^1H NMR resonance signals permitted to highlight evident differences.
All the STD NMR experiments were performed using an 800 MHz Bruker spectrometer with a cryoprobe (Bruker, Billerica, MA, United States). The samples were prepared in the corresponding deuterated buffer. The temperature was 288 K for every experiment. An amount of 50 μM of the lectin with 50 equivalents of the ligand was employed for every experiment except for lactose, for which a 1:70 ratio was used. The STD spectra were acquired with 1,024 scans, 2 s of saturation time using a train of 50 ms Gaussian-shaped pulses, and 3 s of relaxation delay. The spin-lock filter applied to remove the signals of the lectin was set at 40 ms. The on-resonance frequency was set for the aromatic region at 6.58 ppm, while the off-resonance frequency was set at 100 ppm.
Supplementary Table S1. Relative STD-AF (Amplification factor) and STD percentage of each non overlapping proton of each ligand.

Assay [2] addresses T1, N-terminal CRD of hGalectin-4 (Gal-4N). Kind of assay: 1H-15N HSQC NMR-based titrations (chemical shift perturbation) of 15N-labeled Gal-4N. On the procedure:
The molecular recognition event was also analyzed from the perspective of the lectin. Thus, a chemical shift perturbation (CSP) analysis of the changes produced in the ^1H-^15N HSQC spectra recorded for ^15N-labeled Gal-4N upon addition of the different ligands was carried out. This analysis required the NH backbone NMR assignment of the lectin signals, following well-established triple resonance 3D NMR methods (see Materials and methods and Supplementary Information). The assignment protocol allowed assigning 80% of the NH backbone resonances. In addition to the ligands shown in Scheme 1, the corresponding non-fucosylated analogs and the H antigens (devoid of the terminal Gal/GalNAc moieties, see Supplementary Information), as well as lactose, were also employed. Thus, a full comparative analysis on the monosaccharide-specific effects on the lectin CSP was achieved.
The total volume for the NMR samples was 500/μl. The lectin was in phosphate-buffered saline (50 mM sodium phosphate, 150 mM NaCl, pH 7.4), either in D2O or 90:10 H2O:D2O depending on the NMR experiment. The pH was adjusted with the required amount of NaOH and HCl or NaOD and DCl.
experiments were acquired using an 800 MHz Bruker spectrometer with a cryoprobe (Bruker, Billerica, MA, United States). The samples were prepared using 50 μM of the ^15N-labeled lectin in the corresponding buffer in a 90:10 H2O:D2O ratio. The experiments were performed at 298 K. Six to nine points were recorded for each ligand and CSP and KD were calculated using CcpNmr Analysis 2.4.2.

Assay [3] shares this target. Briefly: Isothermal titration calorimetry (ITC). The following applies: for Kd: PBS pH 7.4, single binding site model. The protocol:
Isothermal titration calorimetry experiments were performed using the MicroCal PEAQ-ITC calorimeter (Malvern Panalytical, Malvern, United Kingdom). Samples containing 100–200 μM of Gal-4N in PBS (50 mM sodium phosphate, pH 7.4, 300 mM NaCl) were titrated with stocks of 3–10 mM in PBS of glycans 4, 5, 7, 8, 9, and 11. During the automated experiment, small aliquots (2–3 μL) of the sugar stocks were added to the cell containing the lectin. Curve fitting to a single binding site model was performed with the MicroCal Origin 7 software.
Isothermal titratrion calorimetry (ITC). Isothermal Titration Calorimetry experiments were performed using MicroCal PEAQ-ITC calorimeter. Samples containing 100-200 µM of Gal-4N in PBS (50 mM sodium phosphate pH 7.4, 300 mM NaCl) were titrated with stocks of 3-10 mM in PBS of glycans A type 1, A type 2, A type 6, B type 1, B type 2 and B type 6. During the automated experiment, small aliquots (2-3 µL) of the sugar stocks were added to the cell containing the lectin. The association constants and the thermodynamic profile of the binding was calculated from the fitting of the titration data to a single binding site model.

Where [4] appears, read: HSQC NMR-based titration, 50 μM 15N-labeled lectin, 298 K, read-out: KD (μM) (NMR).
[5] abbreviates: 1H-residue H4GalNAc (B type 4, core GalNAc).

On to `CC(=O)N[C@H]1[C@@H](O[C@H]2[C@@H](O)[C@@H](CO)O[C@@H](O[C@H]3[C@@H](O)[C@@H](CO)O[C@@H](O[C@@H]4[C@@H](O)[C@H](O)O[C@H](CO)[C@@H]4O)[C@@H]3NC(C)=O)[C@@H]2O[C@@H]2O[C@@H](C)[C@@H](O)[C@@H](O)[C@@H]2O)O[C@H](CO)[C@H](O)[C@@H]1O` [A type-4 (penta)], for which the STD% stood at 95% in assay [1] (1H-residue H1GalNAc); 61% in assay [1] (1H-residue H1Galβ); 36% in assay [1] (1H-residue H2Galβ); 28% in assay [1] (1H-residue H3GalNAc); 15% in assay [1] (1H-residue H3GalNAcb); 21% in assay [1] (1H-residue H3Galβ). For the same compound, the STD% in assay [1] (1H-residue H4GalNAcb) is recorded as 24%; in assay [1] (1H-residue H4Galβ), 71%; in assay [1] (1H-residue H5Galβ), 100%; in assay [1] (1H-residue NHAc GalNAc), 68%. For the same compound, the STD-AF in assay [1] (1H-residue H1GalNAc, 50:1 ligand:lectin, 288 K) came to 0.0145; in assay [1] (1H-residue H1Galβ), 0.0092; in assay [1] (1H-residue H2Galβ) it was 0.0054; in assay [1] (1H-residue H3GalNAc), 0.0043; in assay [1] (1H-residue H3GalNAcb) it was 0.0023; in assay [1] (1H-residue H3Galβ), 0.0032. Further, the STD-AF in assay [1] (1H-residue H4GalNAcb) is 0.0036; in assay [1] (1H-residue H4Galβ) it was 0.0108; in assay [1] (1H-residue H5Galβ), 0.0152; in assay [1] (1H-residue MetFuc), 0.0012; in assay [1] (1H-residue NHAc GalNAc), 0.0104. For the same compound, the Kd – broadly, the constant that tells how readily two partners part at equilibrium – in assay [2] (setting [4]) was found to be 1380 µM.
Consider `CC(=O)NC1C(O)OC(CO)C(OC2OC(CO)C(O)C(OC3OC(CO)C(O)C(O)C3NC(C)=O)C2OC2OC(C)C(O)C(O)C2O)C1O` (stereo not shown) [A type−2 (tetra)], for which, in assay [3], the “-TΔS (kcal mol^–1) (ITC)” value stood at 1.8 kcal mol^–1, the “ΔG (kcal mol^–1) (ITC)” value is −5.1 kcal mol^–1, the “ΔH (kcal mol^–1) (ITC)” value is recorded as −6.9 kcal mol^–1 and the Kd came out at 187 µM. Also, in assay [2] (setting [4]), the Kd turned out to be 370 µM.
For the compound `CC1OC(OC2C(OC3C(CO)OC(O)C(O)C3O)OC(CO)C(O)C2OC2OC(CO)C(O)C(O)C2O)C(O)C(O)C1O` (stereo not shown) [B type-6 (tetra)], the STD% was 28% in assay [1] (1H-residue H1 Fuc); 74% in assay [1] (1H-residue H1Galα); 80% in assay [1] (1H-residue H1Galβ); 38% in assay [1] (1H-residue H2Galα); 34% in assay [1] (1H-residue H2Galβ); 39% in assay [1] (1H-residue H2Glca / H2Glcα). The STD% in assay [1] (1H-residue H2Glcb / H2Glcβ) came to 36%; in assay [1] (1H-residue H3Galβ), 29%; in assay [1] (1H-residue H3Glcb / H3Glcβ), 46%; in assay [1] (1H-residue H4Galβ), 82%; in assay [1] (1H-residue H5Galβ), 100%; in assay [1] (1H-residue H5Glcβ), 44%. In assay [1] (1H-residue MetFuc), this compound showed an STD% of 20%. Further, the STD-AF in assay [1] (1H-residue H1 Fuc) is given as 0.0105; in assay [1] (1H-residue H1Galα), 0.0276; in assay [1] (1H-residue H1Galβ), 0.0298; in assay [1] (1H-residue H2Galα), 0.0142; in assay [1] (1H-residue H2Galβ) it was 0.0129; in assay [1] (1H-residue H2Glca / H2Glcα), 0.0146. The STD-AF in assay [1] (1H-residue H2Glcb / H2Glcβ) stood at 0.0135; in assay [1] (1H-residue H3Galβ), 0.0108; in assay [1] (1H-residue H3Glcb / H3Glcβ), 0.0172; in assay [1] (1H-residue H4Galβ), 0.0307; in assay [1] (1H-residue H5Galβ) it was 0.0374; in assay [1] (1H-residue H5Glcβ) it was 0.0163. The STD-AF in assay [1] (1H-residue MetFuc) is 0.0074. For the same compound, in assay [3], the “-TΔS (kcal mol^–1) (ITC)” value was determined as 6.4 kcal mol^–1. Also, the binding enthalpy in assay [3] was -12.3 kcal/mol. Besides, in assay [3], the “ΔG (kcal mol^–1) (ITC)” value is on record as −5.9 kcal mol^–1. Besides, the “ΔH (kcal mol^–1) (ITC)” value in assay [3] is recorded as −12.3 kcal mol^–1. For the same compound, the “increased affinity of type-6 vs corresponding type-2 antigen” value in assay [3] (Glc vs GlcNAc at reducing end, β1–4 linked) was “two-fold”. In addition, the Kd in assay [3] stood at 51 µM; in assay [2] (setting [4]) it was 60 µM. Also, the “fold difference in affinity of the best binder” value in assay [3] (among tetrasaccharides of Figure 6 (ITC)) is 5 fold. Also, the “fold range of NMR-based binding affinities, best vs worse binder” value in assay [2] (B-type 6 vs A-type 4) is 20 fold.
As to `OC[C@H]1O[C@@H](O[C@H]2[C@H](O)[C@@H](O)C(O)O[C@@H]2CO)[C@H](O)[C@@H](O)[C@H]1O` (mixture of isomers) [Lactose], the Kd in assay [2] (NMR titration, read-out: KD) amounted to 1600 µM.
On to `CC(=O)N[C@@H]1[C@@H](O[C@@H]2O[C@H](CO)[C@H](O)[C@H](O[C@H]3O[C@H](CO)[C@H](O)[C@H](O)[C@H]3NC(C)=O)[C@H]2O[C@@H]2O[C@@H](C)[C@@H](O)[C@@H](O)[C@@H]2O)[C@H](O)[C@@H](CO)O[C@H]1O` [A type-1 (tetra)], for which, in assay [3], the “-TΔS (kcal mol^–1) (ITC)” value was found to be 1.0 kcal mol^–1, the “ΔG (kcal mol^–1) (ITC)” value is −4.9 kcal mol^–1, the “ΔH (kcal mol^–1) (ITC)” value is −5.9 kcal mol^–1 and the dissociation constant Kd is 267 µM.
As to `CC(=O)NC1C(OC2C(O)C(O)OC(CO)C2O)OC(CO)C(O)C1OC1OC(CO)C(O)C(OC2OC(CO)C(O)C(O)C2O)C1OC1OC(C)C(O)C(O)C1O` (stereo not shown) [B type-4 (penta)], the STD% in assay [1] (1H-residue H1 Fuc) is 21%; in assay [1] (1H-residue H1Galα), 100%; in assay [1] (1H-residue H1Galβ), 49%; in assay [1] (1H-residue H2Galβ) it was 47%; in assay [1] (1H-residue H3Galα), 44%; in assay [1] (setting [5]), 30%. Further, the STD% in assay [1] (1H-residue H4Galβ) is recorded as 68%; in assay [1] (1H-residue H5Galβ) it was 86%; in assay [1] (1H-residue MetFuc), 10%; in assay [1] (1H-residue NHAc (B type 4)), 36%. The STD-AF turned out to be 0.0020 in assay [1] (1H-residue H1 Fuc); 0.0094 in assay [1] (1H-residue H1Galα); 0.0046 in assay [1] (1H-residue H1Galβ); 0.0044 in assay [1] (1H-residue H2Galβ); 0.0041 in assay [1] (1H-residue H3Galα); 0.0028 in assay [1] (setting [5]). For the same compound, the STD-AF in assay [1] (1H-residue H4Galβ) is 0.0064; in assay [1] (1H-residue H5Galβ), 0.0081; in assay [1] (1H-residue MetFuc) it was 0.0009; in assay [1] (1H-residue NHAc (B type 4)), 0.0034. Further, in assay [2] (setting [4]), the Kd turned out to be 460 µM.

The values are drawn from PMC8097242, “Galectin-4 N-Terminal Domain: Binding Preferences Toward A and B Antigens With Different Peripheral Core Presentations” (Frontiers in Chemistry, 2021).
